In patent US20050267204A1, “Synergistic gold-containing compositions” (MEDICAL INNOVATIONS LIMITED, priority 1996, published 2005):
Entries after “also recorded” stand apart in the source; their conditions may differ. Where two headings read alike, the source gives them in different places.

Key:
[1] = test system: TPA-induced inflammatory cell infiltration into the dermis; test: Inhibition of TPA-induced inflammatory cell infiltration into the dermis of mice; assay type: in vivo, BALB/c mice; conditions: for Synergistic factor: IC50 without auranofin divided by IC50 with auranofin (0.2%); for Emax: read-out: Emax (% inhibition); for Relative potency: hydrocortisone acetate = 1.0
Experimental: (§1) The mice were housed in stainless steel cages, 6 mice per cage under normal laboratory conditions (room temperature at about 22° C.) at least 7 days before the experiments for acclimatization. Food and water were allowed ad libitum throughout the experiment period. The backs of the mice were shaved with an electric clipper two days before each treatment and only those mice showing no hair regrowth were used (i.e., the mice in the resting phase of the hair growth cycle were selected). During treatment, the mice were held with their tails and put on top of the cage so that they grasped the cage and rested there. The solutions were applied to an area approximately 2 cm×2 cm on the shaved back of the mice by using a “Pipetman” to apply the solution. If auranofin ointment or ointment base was applied, the amount was standardized by using a microspatula which was crimped at one end, the ointment was then put into the ridge and the excess removed by means of another microspatula and applied sparingly twice a day. After a fixed time, the mice were killed routinely by cervical dislocation between 9 a.m. and 11 a.m. to avoid variations due to circadian rhythms, and an area (1 cm×1 cm) was excised from the centre of the treated area by scalpel and scissors. The rest of the tissues were disposed by combustion. The tissues were then fixed, embedded, sectioned and stained.
Infiltration of inflammatory cells was determined by the same image analysis system using the section taken from the block of mouse skin embedded in paraffin wax or Spurr's resin and stained with haematoxylin and eosin or toluidine blue respectively. For each section, 10 fields, unless otherwise stated, were chosen randomly and the cell density per mm^2 of field determined. The average value for the 10 fields was obtained and entered as one value for each mouse. The mean and SEM for the six mice in each treatment group were calculated.
The measurement of the inflammatory cell infiltration included the background values which included other materials in the dermis stained in the same way.
(§2) The percent inhibition of drug on TPA-induced skin responses (i.e., epidermal hyperplasia, inflammatory cell infiltration and skin-fold thickness) was calculated by using the following formula: [formula]
(§3) This provides estimates of (a) the potency, (b) the efficacy or maximum effect (Emax) and the slope of the log concentration-response curve by using Hill coefficient (γ). The Hill Equation may be expressed as follows: [formula] where IC50 is the drug concentration producing 50% of the maximal response and Emax refers to the maximal effect produced by the drug and is also termed efficacy. Efficacy is the measurement of the intrinsic ability of a drug to initiate a response once it occupies receptor sites. […] The Hill coefficient (γ) measures the slope of the dose-effect curve which can be markedly influenced by the shape of the curve that describes the binding of the drug to the receptor. For many drugs, y lies between 0.6 and 1.5. […] On the other hand, when γ is less than 1, with a shallow hyperbolic concentration effect relationship, the activity occurs over a wide range of drug levels.
(§4) In the present study, concentration-response curves were obtained for a series of corticosteroids. In these experiments, curve fitting was accomplished using a computer programme called “The Scientist” (MicroMath Scientific Software, Salt Lake City, Utah, USA.) in which the parameters, Emax, IC50 and Hill coefficient (γ) for each steroids were estimated by using non-linear regression and least square fits.
Mice were divided into treatment groups. TPA and corticosteroids were premixed to the concentrations required and applied to the backs of mice immediately.

[2] = test system: TPA-induced epidermal hyperplasia; test: Inhibition of TPA-induced epidermal hyperplasia (epidermal thickness) on back skin of mice; assay type: in vivo, BALB/c mice; conditions: for Synergistic factor: IC50 without auranofin divided by IC50 with auranofin (0.2%); for Emax: read-out: Emax (% inhibition); for Synergism with auranofin, epidermal hyperplasia (in words): auranofin (0.2%) co-administered; for Relative potency: hydrocortisone acetate = 1.0; for Percent increase in the apparent potency of the steroid: in presence of auranofin (0.2%)
Experimental: as §1
Epidermal thickness was determined by image analysis. This image analysis system was a minicomputer (Tracor Northern TN8500) attached to a light microscope (Zeiss Axioplan) and a camcorder (Sony DXC-3000P). Sections were taken from each tissue block and 20 measurements were taken at fixed intervals from each section. The average value for the 20 measurements was obtained and entered as one value for each mouse. The mean and SEM for the six mice in each treatment group were calculated.
as §2, §3, §4
Mice were divided into treatment groups. TPA and corticosteroids were premixed to the concentrations required and applied to the backs of mice immediately. For those steroids not very soluble in acetone (i.e., betamethasone, dexamethasone, hydrocortisone and hydrocortisone acetate), the drugs were dissolved in 100 μL dimethylformamide before further dilution with acetone. The efficacy of corticosteroids in inhibiting epidermal hyperplasia, inflammatory cell infiltration and skin-fold thickness was assessed as described previously. Concentration-response curves were determined after computer-fitting of data.

[3] = Mus musculus, from Hill equation, concentration that produced 50% of Emax, read-out: IC50 for inhibition of inflammatory cell infiltration in the dermis (M × 10^−4)
[4] = Mus musculus, read from concentration-response curve, concentration that inhibited 50% of the TPA effect, read-out: IC50 for inhibition of inflammatory cell infiltration in the dermis (M × 10^−4)
[5] = Mus musculus, topical, Hill equation fit, means ± SD, steroid premixed with TPA, topical, read-out: IC50 (M × 10^−4)
[6] = Mus musculus, with auranofin (0.2%), from computer fitted graph, means ± SD, read-out: Apparent IC50 (M × 10^−4) with auranofin
[7] = Mus musculus, without auranofin, from computer fitted graph, means ± SD, read-out: Apparent IC50 (M × 10^−4) without auranofin
[8] = Mus musculus, Hill equation fit, means ± SD, steroid premixed with TPA, topical
[9] = Mus musculus, from Hill equation, concentration that produced 50% of Emax, read-out: IC50 for inhibition of epidermal thickening (M × 10^−4)
[10] = Mus musculus, read from concentration-response curve, concentration that inhibited 50% of the TPA effect, read-out: IC50 for inhibition of epidermal thickening (M × 10^−4)
[11] = Hill equation fit, means ± SD, steroid premixed with TPA, topical
[12] = Hill equation fit, means ± SD, steroid premixed with TPA, topical, read-out: IC50 (M × 10^−4)

IC50 [1, 3] [µM]	IC50 [1, 4] [µM]	IC50 [1, 5] [µM]	IC50 [1, 6] [µM]	IC50 [1, 7] [µM]	IC50 [2, 9] [µM]	IC50 [2, 10] [µM]	IC50 [2, 5] [µM]	IC50 [2, 6] [µM]	IC50 [2, 7] [µM]	Compound	Synergistic factor [1]	Emax [1, 8] [%]	Relative potency ([1]; from Hill-equation IC50)	Relative potency ([1]; from IC50 read from curve)	Synergistic factor [2]	Emax [2, 8] [%]	Synergism with auranofin, epidermal hyperplasia (in words) [2]	Relative potency ([2]; from Hill-equation IC50)	Relative potency ([2]; from IC50 read from curve)	Percent increase in the apparent potency of the steroid [2]	other results
29	40	29 ± 6	9 ± 1.6	40 ± 6	81	140	81 ± 36	2.5 ± 0.3	140 ± 36	CCC(=O)OCC(=O)[C@@]1(OC(=O)CC)[C@@H](C)C[C@H]2[C@@H]3CCC4=CC(=O)C=C[C@]4(C)[C@@]3(F)[C@@H](O)C[C@@]21C [Betamethasone dipropionate, betamethasone dipropionate]	4.44	90.8 ± 3.71	266.66	275.0	56.0	95.6 ± 6.55	massive synergism	45.27	50.0	5,600%	Potency for inhibition of TPA-induced inflammatory cell infiltration (in words) [1]: medium to strong potencies; also recorded: strong to very strong anti-inflammatory effect; Increase in apparent IC50 ([1]; in presence of auranofin (0.2%), Table 10): 400-500%; Potency for inhibition of TPA-induced epidermal hyperplasia (in words) [2]: medium to strong potencies; also recorded: strong to very strong potencies; Inhibition of TPA effect (epidermal hyperplasia) ([2]; 1×10^−5 M combined with auranofin (0.2%), FIG. 1): about 65%; inhibition at 10 µM ([2]; Mus musculus, 1×10^−5 M alone, FIG. 1, read-out: Inhibition of TPA effect (epidermal hyperplasia)): ~20%; Ratio of concentration without auranofin to concentration with auranofin for the same effect ([2]; about 65% inhibition level): 50 times; Concentration that, in the absence of auranofin, produced the same effect as the combination ([2]; same effect as 1×10^−5 M with auranofin (0.2%)): 500 µM
1310	2100	1310 ± 165			2720	5000	1380			C[C@H]1C[C@H]2[C@@H]3CCC4=CC(=O)C=C[C@]4(C)[C@@]3(F)[C@@H](O)C[C@]2(C)[C@@]1(O)C(=O)CO [Betamethasone, betamethasone]		74.5 ± 3.29	5.89	5.23		94.2 ± 7.33		1.35	1.40		

Second part, the molecule before the results:

Compound	IC50 [1, 3] [µM]	IC50 [1, 4] [µM]	IC50 [1, 5] [µM]	IC50 [1, 6] [µM]	IC50 [1, 7] [µM]	IC50 [2, 9] [µM]	IC50 [2, 10] [µM]	IC50 [2, 5] [µM]	IC50 [2, 6] [µM]	IC50 [2, 7] [µM]	Synergistic factor [1]	Emax [1, 8] [%]	Relative potency ([1]; from Hill-equation IC50)	Relative potency ([1]; from IC50 read from curve)	Synergistic factor [2]	Emax [2, 8] [%]	Synergism with auranofin, epidermal hyperplasia (in words) [2]	Relative potency ([2]; from Hill-equation IC50)	Relative potency ([2]; from IC50 read from curve)	Percent increase in the apparent potency of the steroid [2]	other results
C[C@@H]1C[C@H]2[C@@H]3C[C@H](F)C4=CC(=O)C=C[C@]4(C)[C@H]3[C@@H](O)C[C@]2(C)[C@H]1C(=O)COC(=O)C(C)(C)C [Fluocortolone 21-pivalate]													70.30	100.0				91.68	116.67		Emax (% inhibition) [1, 11]: 97.91 ± 12.16 % inhibition; IC50 [1, 12]: 110 ± 40 µM; IC50 ([1]; from Hill equation, concentration that produced 50% of Emax, read-out: IC50 for inhibition of inflammatory cell infiltration in the dermis (M × 10^−4)): 110 µM; Potency for inhibition of TPA-induced inflammatory cell infiltration (in words) ([1]; ranking in text): medium to strong potencies; IC50 ([1]; read from concentration-response curve, concentration that inhibited 50% of the TPA effect, read-out: IC50 for inhibition of inflammatory cell infiltration in the dermis (M × 10^−4)): 110 µM; Emax (% inhibition) [2, 11]: 85.18 ± 9.51 % inhibition; IC50 [2, 12]: 40 ± 15 µM; IC50 ([2]; from Hill equation, concentration that produced 50% of Emax, read-out: IC50 for inhibition of epidermal thickening (M × 10^−4)): 40 µM; Potency for inhibition of TPA-induced epidermal hyperplasia (in words) ([2]; ranking in text): medium to strong potencies; IC50 ([2]; read from concentration-response curve, concentration that inhibited 50% of the TPA effect, read-out: IC50 for inhibition of epidermal thickening (M × 10^−4)): 60 µM
C[C@]12CCC(=O)C=C1CC[C@@H]1[C@@H]2[C@@H](O)C[C@@]2(C)[C@H]1CC[C@]2(O)C(=O)CO [Hydrocortisone, hydrocortisone]	6150	6000	6150 ± 966	3100 ± 412	6000 ± 966	4620	4510	4620 ± 1320	2200 ± 1120	4500 ± 1320	1.94	100	1.26	1.83	2.05	99 ± 9.54	minor degree of synergism	0.79	1.55	100%	Potency for inhibition of TPA-induced inflammatory cell infiltration (in words) ([1]; ranking in text): low to medium potencies; Potency for inhibition of TPA-induced epidermal hyperplasia (in words) ([2]; ranking in text): low to medium potencies
CC1(C)O[C@@H]2C[C@H]3[C@@H]4C[C@H](F)C5=CC(=O)C=C[C@]5(C)[C@@]4(F)[C@@H](O)C[C@]3(C)[C@]2(C(=O)CO)O1 [Fluocinolone acetonide, fluocinolone acetonide]	16	25	16 ± 2	11 ± 1.3	25 ± 0.2	39	21	39 ± 14	1.6 ± 0.2	21 ± 14	2.27	79.6 ± 2.41		440	13.13	89.6 ± 6.93	massive synergism	94.03	333.33	1,300%	Potency for inhibition of TPA-induced inflammatory cell infiltration (in words) ([1]; ranking in text): most potent agent; Potency for inhibition of TPA-induced inflammatory cell infiltration (in words) ([1]; ranking in text, listed as fluocinolone acetonide): strong to very strong anti-inflammatory effect; Potency for inhibition of TPA-induced epidermal hyperplasia (in words) ([2]; ranking in text): strong to very strong potencies
